Columns and labels:
hFLT3(K663Q) = target: T1, hFLT3(K663Q) (Homo sapiens, UniProt P36888, K663Q); assay: KINOMEscan; type: binding
T1 construct: purchased DiscoverX

hULK3 = target: T2, hULK3 (Homo sapiens, UniProt Q6PHR2); assay: KINOMEscan; type: binding
T2 construct: purchased DiscoverX

hRXRα = target: T3, hRXRα (Homo sapiens, UniProt P19793); assay: Nuclear hormone receptor assay (Eurofins-CEREP); settings: read-out: Relative IC50
T3 construct: Eurofins-CEREP

hABL1(Q252H) = target: T4, hABL1(Q252H) (Homo sapiens, UniProt P00519, Q252H); assay: KINOMEscan; type: binding
T4 construct: purchased DiscoverX (KINOMEscan platform)

hKIT(L576P) = target: T5, hKIT(L576P) (Homo sapiens, UniProt P10721, L576P); assay: KINOMEscan; type: binding
T5 construct: purchased DiscoverX (KINOMEscan panel)
T5 sequence (P10721 26-976 L576P): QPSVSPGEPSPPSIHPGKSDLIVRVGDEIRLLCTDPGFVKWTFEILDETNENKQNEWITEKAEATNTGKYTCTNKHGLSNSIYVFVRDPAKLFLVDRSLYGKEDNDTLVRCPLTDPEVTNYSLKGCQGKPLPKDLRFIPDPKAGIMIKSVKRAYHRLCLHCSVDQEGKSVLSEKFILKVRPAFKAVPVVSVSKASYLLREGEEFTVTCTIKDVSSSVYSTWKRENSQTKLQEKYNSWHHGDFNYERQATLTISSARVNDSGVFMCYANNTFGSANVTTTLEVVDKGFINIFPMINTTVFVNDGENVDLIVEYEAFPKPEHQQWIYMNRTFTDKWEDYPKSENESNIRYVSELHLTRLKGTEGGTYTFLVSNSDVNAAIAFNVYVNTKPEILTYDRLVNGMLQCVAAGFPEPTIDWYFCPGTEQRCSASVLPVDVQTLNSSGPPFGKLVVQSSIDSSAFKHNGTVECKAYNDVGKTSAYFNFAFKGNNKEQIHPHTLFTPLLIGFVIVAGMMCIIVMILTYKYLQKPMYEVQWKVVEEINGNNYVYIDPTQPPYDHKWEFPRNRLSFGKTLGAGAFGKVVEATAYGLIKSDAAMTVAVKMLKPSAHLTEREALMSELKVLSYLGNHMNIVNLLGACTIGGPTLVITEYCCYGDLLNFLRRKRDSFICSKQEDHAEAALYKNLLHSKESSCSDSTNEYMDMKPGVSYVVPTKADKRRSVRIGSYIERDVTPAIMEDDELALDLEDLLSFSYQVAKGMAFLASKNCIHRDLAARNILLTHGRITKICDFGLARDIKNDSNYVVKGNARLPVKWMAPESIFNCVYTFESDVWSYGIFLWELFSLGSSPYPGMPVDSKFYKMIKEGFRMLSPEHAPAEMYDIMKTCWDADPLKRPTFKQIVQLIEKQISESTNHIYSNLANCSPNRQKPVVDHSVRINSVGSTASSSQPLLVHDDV

hBMX = target: T6, hBMX (Homo sapiens, UniProt P51813); assay: KINOMEscan; type: binding
T6 construct: purchased DiscoverX

hKIT(D816H) = target: T7, hKIT(D816H) (Homo sapiens, UniProt P10721, D816H); assay: KINOMEscan; type: binding
T7 construct: purchased DiscoverX (KINOMEscan panel)
T7 sequence (P10721 26-976 D816H): as the sequence (P10721 26-976 L576P) above, with P551L, D791H counted along it

hCSNK1G3 = target: T8, hCSNK1G3 (Homo sapiens, UniProt Q9Y6M4); assay: KINOMEscan; type: binding
T8 construct: purchased DiscoverX (KINOMEscan platform)

hAKT3 = target: T9, hAKT3 (Homo sapiens, UniProt Q9Y243); assay: KINOMEscan; type: binding
T9 construct: purchased DiscoverX

hHIPK4 = target: T10, hHIPK4 (Homo sapiens, UniProt Q8NE63); assay: KINOMEscan; type: binding
T10 construct: purchased DiscoverX

hRET = target: T11, hRET (Homo sapiens, UniProt P07949); assay: KINOMEscan; type: binding
T11 construct: purchased DiscoverX (KINOMEscan platform)

hTEC = target: T12, hTEC (Homo sapiens, UniProt P42680); assay: KINOMEscan; type: binding
T12 construct: purchased DiscoverX

hERBB2 = target: T13, hERBB2 (Homo sapiens, UniProt P04626); assay: KINOMEscan; type: binding
T13 construct: purchased DiscoverX
T13 sequence (P04626 23-1255): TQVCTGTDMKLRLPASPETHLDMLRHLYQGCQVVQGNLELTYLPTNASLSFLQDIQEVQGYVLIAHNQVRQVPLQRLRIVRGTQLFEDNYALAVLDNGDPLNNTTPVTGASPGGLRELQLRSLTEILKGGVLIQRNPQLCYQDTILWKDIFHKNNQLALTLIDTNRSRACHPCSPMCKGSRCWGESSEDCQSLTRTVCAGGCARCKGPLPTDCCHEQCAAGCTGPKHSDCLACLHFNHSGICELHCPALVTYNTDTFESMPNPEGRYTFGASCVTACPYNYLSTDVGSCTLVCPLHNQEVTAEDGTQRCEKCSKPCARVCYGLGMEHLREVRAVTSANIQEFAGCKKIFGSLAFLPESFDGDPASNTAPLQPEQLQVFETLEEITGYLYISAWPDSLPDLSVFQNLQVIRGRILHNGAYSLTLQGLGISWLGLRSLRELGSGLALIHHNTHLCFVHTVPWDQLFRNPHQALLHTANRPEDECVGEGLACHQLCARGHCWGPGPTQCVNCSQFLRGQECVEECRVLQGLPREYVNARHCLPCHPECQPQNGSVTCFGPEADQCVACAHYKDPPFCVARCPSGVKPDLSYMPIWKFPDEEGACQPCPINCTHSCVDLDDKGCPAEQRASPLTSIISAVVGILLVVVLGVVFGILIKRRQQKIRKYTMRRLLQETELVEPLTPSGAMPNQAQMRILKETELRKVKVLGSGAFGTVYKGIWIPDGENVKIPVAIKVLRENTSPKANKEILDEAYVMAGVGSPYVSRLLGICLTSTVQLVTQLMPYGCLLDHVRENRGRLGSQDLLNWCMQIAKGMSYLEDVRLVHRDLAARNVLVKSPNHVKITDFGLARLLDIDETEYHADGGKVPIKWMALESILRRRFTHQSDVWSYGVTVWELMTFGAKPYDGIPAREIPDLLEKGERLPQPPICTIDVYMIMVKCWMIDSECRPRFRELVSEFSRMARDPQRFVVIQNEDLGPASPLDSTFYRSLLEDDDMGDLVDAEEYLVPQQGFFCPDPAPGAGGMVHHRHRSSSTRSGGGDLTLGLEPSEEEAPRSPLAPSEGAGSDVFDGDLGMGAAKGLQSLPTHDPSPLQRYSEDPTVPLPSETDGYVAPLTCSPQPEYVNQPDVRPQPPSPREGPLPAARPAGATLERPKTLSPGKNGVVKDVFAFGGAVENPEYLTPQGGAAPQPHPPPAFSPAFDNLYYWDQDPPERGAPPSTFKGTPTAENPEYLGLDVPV

hBMPR2 = target: T14, hBMPR2 (Homo sapiens, UniProt Q13873); assay: KINOMEscan; type: binding
T14 construct: purchased DiscoverX

hBMPR1A = target: T15, hBMPR1A (Homo sapiens, UniProt P36894); assay: KINOMEscan; type: binding
T15 construct: purchased DiscoverX

hHCK = target: T16, hHCK (Homo sapiens, UniProt P08631); assay: KINOMEscan; type: binding
T16 construct: purchased DiscoverX

hFLT3(D835H) = target: T17, hFLT3(D835H) (Homo sapiens, UniProt P36888, D835H); assay: KINOMEscan; type: binding
T17 construct: purchased DiscoverX

hDMPK = target: T18, hDMPK (Homo sapiens, UniProt Q09013); assay: KINOMEscan; type: binding
T18 construct: purchased DiscoverX (KINOMEscan platform)

hCSF1R = target: T19, hCSF1R (Homo sapiens, UniProt P07333); assay: KINOMEscan; type: binding
T19 construct: purchased DiscoverX (KINOMEscan platform)

[1] = test system: lysine methylation of histone H3 or H4; assay: Mass spectrometry proteomics of cell-derived histones, SMYD2-overexpressing KYSE-150 cells; type: cell-based, human; settings: 5 μM LLY-507 versus untreated cells
Experimental: Acid-extracted histone samples were chemically derivatized using propionic anhydride and digested with trypsin for 6 h at 37 °C. The digested peptides were treated with an additional round of propionylation and desalted using a C18 extracted mini disk (Empore 3M). Approximately 1 μg of each sample was loaded via an autosampler (Eksigent NanoLC.Ultra 2D Plus) onto a homemade precolumn (3-μm particle size, 120-Å pore size) at a flow rate of 2 μl/min. Peptides were chromatographically resolved via a 75-μm reversed phase analytical column packed with C18-AQ resin (1.9-μm particle size, 120-Å pore size) using a 77-min 2–98% solvent B gradient (solvent A, 0.1% formic acid; solvent B, 100% acetonitrile) at a flow rate of 250 nl/min. The electrosprayed peptides were detected by an Orbitrap Elite^TM mass spectrometer (Thermo Fisher Scientific) with a resolution of 120,000 for full MS spectrum followed by MS/MS spectra obtained in the ion trap. The relative abundance of each modification, expressed as a percentage on a histone peptide sequence, was quantified by analyzing its MS and MS/MS spectra via Epiquant, an in-house software.

h5HT2B = h5HT2B (Homo sapiens, UniProt P41595); assay: Calcium Mobilization Agonist (Eurofins-CEREP); settings: @ 13.3 μM
hBRSK2 = target: T20, hBRSK2 (Homo sapiens, UniProt Q8IWQ3); assay: KINOMEscan; type: binding
T20 construct: purchased DiscoverX

hABL1(pY253F) = target: T21, hABL1(pY253F) (Homo sapiens, UniProt P00519, Y253F); assay: KINOMEscan; type: binding
T21 construct: purchased DiscoverX (KINOMEscan platform)

hEGFR(L747-T751del,Sins) = hEGFR(L747-T751del,Sins) (Homo sapiens, UniProt P00533, DEL747-751/INS746S); assay: KINOMEscan; type: binding
hABL1(H396P) = target: T22, hABL1(H396P) (Homo sapiens, UniProt P00519, H396P); assay: KINOMEscan; type: binding
T22 construct: purchased DiscoverX (KINOMEscan platform)

hERBB4 = target: T23, hERBB4 (Homo sapiens, UniProt Q15303); assay: KINOMEscan; type: binding
T23 construct: purchased DiscoverX

hEGFR(L858R,T790M) = target: T24, hEGFR(L858R,T790M) (Homo sapiens, UniProt P00533, L858R/T790M); assay: KINOMEscan; type: binding
T24 construct: purchased DiscoverX
T24 sequence (P00533 25-1210 T790M/L858R): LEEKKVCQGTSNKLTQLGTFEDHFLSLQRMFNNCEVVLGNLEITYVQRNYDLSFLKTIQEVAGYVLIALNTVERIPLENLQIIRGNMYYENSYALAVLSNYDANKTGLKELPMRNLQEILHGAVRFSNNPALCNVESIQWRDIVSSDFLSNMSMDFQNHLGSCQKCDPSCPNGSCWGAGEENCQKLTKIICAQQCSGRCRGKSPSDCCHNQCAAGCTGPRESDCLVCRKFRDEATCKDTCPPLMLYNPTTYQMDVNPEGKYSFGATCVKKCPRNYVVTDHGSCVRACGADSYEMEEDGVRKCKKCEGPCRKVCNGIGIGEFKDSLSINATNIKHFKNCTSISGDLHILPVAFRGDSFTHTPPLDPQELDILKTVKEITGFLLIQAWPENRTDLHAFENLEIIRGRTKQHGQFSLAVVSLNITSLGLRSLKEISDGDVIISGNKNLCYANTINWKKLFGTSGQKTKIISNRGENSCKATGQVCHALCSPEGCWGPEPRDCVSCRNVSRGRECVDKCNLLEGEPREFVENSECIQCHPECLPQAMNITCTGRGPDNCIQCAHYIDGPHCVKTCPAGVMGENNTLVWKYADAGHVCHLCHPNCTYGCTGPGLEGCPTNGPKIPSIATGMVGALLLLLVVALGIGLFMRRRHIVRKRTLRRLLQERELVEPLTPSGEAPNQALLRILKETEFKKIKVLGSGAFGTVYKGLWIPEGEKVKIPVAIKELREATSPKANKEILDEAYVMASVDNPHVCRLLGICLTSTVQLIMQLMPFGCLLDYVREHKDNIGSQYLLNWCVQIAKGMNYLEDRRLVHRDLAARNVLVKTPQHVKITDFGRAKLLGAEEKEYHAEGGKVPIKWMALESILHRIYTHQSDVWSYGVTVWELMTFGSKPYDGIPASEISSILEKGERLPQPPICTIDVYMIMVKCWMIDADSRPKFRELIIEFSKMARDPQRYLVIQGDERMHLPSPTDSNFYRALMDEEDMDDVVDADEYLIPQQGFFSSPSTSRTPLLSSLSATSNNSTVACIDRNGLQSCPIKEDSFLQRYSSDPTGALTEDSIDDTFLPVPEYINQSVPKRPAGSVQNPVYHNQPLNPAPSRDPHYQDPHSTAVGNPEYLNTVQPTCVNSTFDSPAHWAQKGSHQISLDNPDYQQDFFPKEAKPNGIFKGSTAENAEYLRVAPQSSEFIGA

hTBK1 = target: T25, hTBK1 (Homo sapiens, UniProt Q9UHD2); assay: KINOMEscan; type: binding
T25 construct: purchased DiscoverX

hRSK1(Kin.Dom.2-C-term) = target: T26, hRSK1(Kin.Dom.2-C-term) (Homo sapiens, UniProt Q15418); assay: KINOMEscan; type: binding
T26 construct: hRSK1(Kin.Dom.2-C-term); purchased DiscoverX (KINOMEscan platform)

hCSNK1E = target: T27, hCSNK1E (Homo sapiens, UniProt P49674); assay: KINOMEscan; type: binding
T27 construct: purchased DiscoverX (KINOMEscan platform)
T27 sequence (P49674 whole entry): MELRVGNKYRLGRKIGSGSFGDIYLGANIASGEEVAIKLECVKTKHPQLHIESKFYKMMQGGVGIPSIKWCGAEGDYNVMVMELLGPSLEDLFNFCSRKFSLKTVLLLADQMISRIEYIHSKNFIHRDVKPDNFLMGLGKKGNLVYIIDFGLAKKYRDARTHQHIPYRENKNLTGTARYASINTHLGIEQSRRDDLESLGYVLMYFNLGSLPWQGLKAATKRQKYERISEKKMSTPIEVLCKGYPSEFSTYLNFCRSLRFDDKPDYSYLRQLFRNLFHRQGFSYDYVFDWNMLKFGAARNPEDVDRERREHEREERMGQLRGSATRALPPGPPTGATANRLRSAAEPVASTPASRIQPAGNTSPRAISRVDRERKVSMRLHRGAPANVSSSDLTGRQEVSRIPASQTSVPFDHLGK

hACVR2A = target: T28, hACVR2A (Homo sapiens, UniProt P27037); assay: KINOMEscan; type: binding
T28 construct: purchased DiscoverX (KINOMEscan platform)
T28 sequence (P27037 20-513): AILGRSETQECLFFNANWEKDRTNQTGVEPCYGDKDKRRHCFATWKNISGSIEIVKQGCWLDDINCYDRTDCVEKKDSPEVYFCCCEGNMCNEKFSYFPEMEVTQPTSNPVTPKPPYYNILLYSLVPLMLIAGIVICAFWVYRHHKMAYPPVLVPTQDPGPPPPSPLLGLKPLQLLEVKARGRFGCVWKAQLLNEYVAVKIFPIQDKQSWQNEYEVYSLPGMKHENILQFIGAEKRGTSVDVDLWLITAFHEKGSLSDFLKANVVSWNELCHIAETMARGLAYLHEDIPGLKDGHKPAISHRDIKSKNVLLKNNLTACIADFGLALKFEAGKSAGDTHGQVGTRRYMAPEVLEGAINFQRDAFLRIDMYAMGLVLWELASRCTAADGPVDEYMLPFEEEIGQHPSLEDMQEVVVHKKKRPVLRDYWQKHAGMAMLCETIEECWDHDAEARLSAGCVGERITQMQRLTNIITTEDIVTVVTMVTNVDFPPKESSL

hKIT(V559D) = target: T29, hKIT(V559D) (Homo sapiens, UniProt P10721, V559D); assay: KINOMEscan; type: binding
T29 construct: purchased DiscoverX (KINOMEscan platform)
T29 sequence (P10721 26-976 V559D): as the sequence (P10721 26-976 L576P) above, with V534D, P551L counted along it

hFYN = target: T30, hFYN (Homo sapiens, UniProt P06241); assay: KINOMEscan; type: binding
T30 construct: purchased DiscoverX
T30 sequence (P06241 whole entry): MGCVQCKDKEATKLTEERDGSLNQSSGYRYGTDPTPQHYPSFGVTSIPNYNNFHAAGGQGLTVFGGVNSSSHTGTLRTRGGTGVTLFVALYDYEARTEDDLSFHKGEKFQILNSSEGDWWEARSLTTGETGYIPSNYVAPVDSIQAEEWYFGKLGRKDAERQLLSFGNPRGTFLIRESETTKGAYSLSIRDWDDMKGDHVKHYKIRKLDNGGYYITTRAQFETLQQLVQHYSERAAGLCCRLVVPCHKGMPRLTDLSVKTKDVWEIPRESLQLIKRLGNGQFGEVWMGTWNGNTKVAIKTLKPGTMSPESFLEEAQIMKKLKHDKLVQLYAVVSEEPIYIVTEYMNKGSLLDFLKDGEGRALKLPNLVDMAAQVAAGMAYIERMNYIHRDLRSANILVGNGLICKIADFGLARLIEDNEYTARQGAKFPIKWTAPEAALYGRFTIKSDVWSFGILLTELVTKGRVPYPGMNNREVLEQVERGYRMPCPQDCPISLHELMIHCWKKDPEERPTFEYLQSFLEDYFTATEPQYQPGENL

hFLT3 = target: T31, hFLT3 (Homo sapiens, UniProt P36888); assay: KINOMEscan; type: binding
T31 construct: purchased DiscoverX

Cc1cn(CCN2CCN(c3ccccc3-c3cc(C#N)cc(C(=O)NCCCN4CCCC4)c3)CC2)c2ccccc12 [LLY-507, 3-cyano-5-{2-[4-[2-(3-methylindol-1-yl)ethyl]piperazin-1-yl]-phenyl}-N-[(3-pyrrolidin-1-yl)propyl]benzamide]
IC50 (hFLT3(K663Q)): > 20 µM
IC50 (hULK3): > 20 µM
IC50 (hRXRα): > 10 µM
IC50 (hABL1(Q252H)): > 20 µM
IC50 (hKIT(L576P)): > 20 µM
IC50 (hBMX): > 20 µM
IC50 (hKIT(D816H)): > 20 µM
IC50 (hCSNK1G3): > 20 µM
IC50 (hAKT3): > 20 µM
IC50 (hHIPK4): > 20 µM
IC50 (hRET): > 20 µM
IC50 (hTEC): > 20 µM
IC50 (hERBB2): > 20 µM
IC50 (hBMPR2): > 20 µM
IC50 (hBMPR1A): > 20 µM
IC50 (hHCK): > 20 µM
IC50 (hFLT3(D835H)): > 20 µM
IC50 (hDMPK): > 20 µM
IC50 (hCSF1R): > 20 µM
change in lysine methylation of histone H3 or H4 [1]: did not show any significant change
% Effect, Stimulation (h5HT2B): 3.4%
IC50 (hBRSK2): > 20 µM
IC50 (hABL1(pY253F)): > 20 µM
IC50 (hEGFR(L747-T751del,Sins)): > 20 µM
IC50 (hABL1(H396P)): > 20 µM
IC50 (hERBB4): > 20 µM
IC50 (hEGFR(L858R,T790M)): > 20 µM
IC50 (hTBK1): > 20 µM
IC50 (hRSK1(Kin.Dom.2-C-term)): > 20 µM
IC50 (hCSNK1E): > 20 µM
IC50 (hACVR2A): > 20 µM
IC50 (hKIT(V559D)): > 20 µM
IC50 (hFYN): > 20 µM
IC50 (hFLT3): > 20 µM
